≈ marks a conversion by molar mass, not a printed value.
Assays:
Assay type in all cases: functional
Staphylococcus sp. [1] = test: In vitro antibacterial activity against Methicillin-resistant coagulase negative Staphylococci (MRCNS) by agar disc diffusion assay method with respect to imipenem
Proteus [2] = test: In vitro antibacterial against Proteus species. by agar disc diffusion assay method with respect to imipenem
Klebsiella sp. [3] = test: In vitro antibacterial against Klebsiella species. by agar disc diffusion assay method with respect to imipenem
Enterobacter sp. [4] = test: In vitro antibacterial against Enterobacter species. by agar disc diffusion assay method with respect to imipenem
Escherichia coli [5] = test: In vitro antibacterial against Escherichia coli by agar disc diffusion assay method with respect to imipenem
Sus scrofa [6] = species: Sus scrofa; test: DHP-I (porcine) susceptibility with respect to imipenem
Enterococcus sp. [7] = test: In vitro antibacterial against Enterococcus species. by agar disc diffusion assay method with respect to imipenem
Serratia [8] = test: In vitro antibacterial against Serratia species. by agar disc diffusion assay method with respect to imipenem
Staphylococcus aureus [9] = test: In vitro antibacterial activity against Methicillin-resistant Staphylococcus aureus (MRSA) by agar disc diffusion assay method with respect to imipenem
Pseudomonas aeruginosa = test: In vitro antibacterial against Pseudomonas aeruginosa by agar disc diffusion assay method
Staphylococcus aureus [10] = test: In vitro antibacterial activity against Methicillin-susceptible Staphylococcus aureus (MSSA) by agar disc diffusion assay method with respect to imipenem
Staphylococcus aureus [11] = test: In vitro antibacterial activity against Methicillin-resistant Staphylococcus aureus (MRSA) by broth microtube dilution method; value ranges from 1-16
Staphylococcus sp. [12] = test: In vitro antibacterial activity against Methicillin-resistant coagulase negative Staphylococci (MRCNS) by broth microtube dilution method; value ranges from 2-16
Escherichia coli [13] = test: In vitro antibacterial against Escherichia coli by agar disc diffusion assay method
Klebsiella sp. [14] = test: In vitro antibacterial against Klebsiella species. by agar disc diffusion assay method
Staphylococcus aureus [15] = test: In vitro antibacterial activity against Methicillin-resistant Staphylococcus aureus (MRSA) by broth microtube dilution method; value ranges from 128 to >128
Sus scrofa [16] = species: Sus scrofa; test: DHP-I(porcine) susceptibility was determined
Staphylococcus aureus [17] = test: In vitro antibacterial activity against Methicillin-susceptible Staphylococcus aureus (MSSA) by agar disc diffusion assay method
Enterococcus sp. [18] = test: In vitro antibacterial against Enterococcus species. by agar disc diffusion assay method
Enterobacter sp. [19] = test: In vitro antibacterial against Enterobacter species. by agar disc diffusion assay method
Proteus [20] = test: In vitro antibacterial against Proteus species. by agar disc diffusion assay method
Staphylococcus sp. [21] = test: In vitro antibacterial activity against Methicillin-resistant coagulase negative Staphylococci (MRCNS) by broth microtube dilution method; value ranges from 128 to >128
Serratia [22] = test: In vitro antibacterial against Serratia species. by agar disc diffusion assay method
Staphylococcus aureus [23] = test: In vitro antibacterial activity against Methicillin-resistant Staphylococcus aureus (MRSA) by broth microtube dilution method; value ranges from 0.5-8
Staphylococcus sp. [24] = test: In vitro antibacterial activity against Methicillin-resistant coagulase negative Staphylococci (MRCNS) by broth microtube dilution method; value ranges from 1-4
Staphylococcus aureus [25] = test: In vitro antibacterial activity against Methicillin-resistant Staphylococcus aureus (MRSA) by broth microtube dilution method
Staphylococcus sp. [26] = test: In vitro antibacterial activity against Methicillin-resistant coagulase negative Staphylococci (MRCNS) by broth microtube dilution method; value ranges from 4-8
Staphylococcus aureus [27] = test: In vitro antibacterial activity against Methicillin-resistant Staphylococcus aureus (MRSA) by broth microtube dilution method; value ranges from 1-8
Staphylococcus aureus [28] = test: In vitro antibacterial activity against Methicillin-resistant Staphylococcus aureus (MRSA) by broth microtube dilution method; value ranges from 0.5-4
Staphylococcus sp. [29] = test: In vitro antibacterial activity against Methicillin-resistant coagulase negative Staphylococci (MRCNS) by broth microtube dilution method; value ranges from 4-32

Row | SMILES | Relative potency (Staphylococcus sp. [1]) [fold] | Relative potency (Proteus [2]) [fold] | Relative potency (Klebsiella sp. [3]) [fold] | Relative potency (Enterobacter sp. [4]) [fold] | Relative potency (Escherichia coli [5]) [fold] | Relative susceptibility (Sus scrofa [6]) | Relative potency (Enterococcus sp. [7]) [fold] | Relative potency (Serratia [8]) [fold] | Relative potency (Staphylococcus aureus [9]) [fold] | Relative potency (Pseudomonas aeruginosa) [fold] | Relative potency (Staphylococcus aureus [10]) [fold] | other results
1 | C[C@@H](O)[C@H]1C(=O)N2C(C(=O)[O-])=C(c3ccc4c5cccnc5n(C)c4c3)C[C@H]12.[Na+] | 4.1 | 0.59 | 0.054 | 0.041 | 0.15 | 0.02 | 1.5 | 0.051 | 4.9 | 0.007 | 0.15 | 
2 | C[C@@H](O)[C@H]1C(=O)N2C(C(=O)[O-])=C(c3cccc4c3c3cccnc3n4C)C[C@H]12.[Na+] | 12 | 1.2 | 0.08 | 0.092 | 0.25 | 0 | 1.4 | 0.38 | 13 | 0.009 | 0.26 | MIC50 (Staphylococcus aureus [11]): 4 µg/mL; MIC90 (Staphylococcus aureus [11]): 8 µg/mL; MIC50 (Staphylococcus sp. [12]): 8 µg/mL; MIC90 (Staphylococcus sp. [12]): 16 µg/mL
3 | C[C@@H](O)[C@H]1C(=O)N2C(C(=O)O)=C(SCCNC=N)C[C@H]12 [IMIPENEM ANHYDROUS] |  |  |  |  |  |  |  |  |  |  |  | MIC (Escherichia coli [13]): 0.68 µg/mL (≈ 2.27 µM); MIC (Klebsiella sp. [14]): 0.59 µg/mL (≈ 1.97 µM); MIC90 (Staphylococcus aureus [15]): > 128 µg/mL; Relative susceptibility (Sus scrofa [16]): 1; MIC (Staphylococcus aureus [17]): 9 ng/mL (≈ 0.0301 µM); MIC (Pseudomonas aeruginosa): 0.31 µg/mL (≈ 1.04 µM); MIC (Enterococcus sp. [18]): 2.8 µg/mL (≈ 9.35 µM); MIC (Enterobacter sp. [19]): 0.49 µg/mL (≈ 1.64 µM); MIC (Proteus [20]): 0.95 µg/mL (≈ 3.17 µM); MIC90 (Staphylococcus sp. [21]): > 128 µg/mL; MIC (Serratia [22]): 0.76 µg/mL (≈ 2.54 µM)
4 | C[C@@H]([O-])[C@H]1C(=O)N2C(C(=O)[O-])=C(c3ccc4[nH]c5c[n+](C)ccc5c4c3)C[C@H]12.[Na+] | 166 | 25 | 2.8 | 7.7 | 9.2 | 0.027 | 2.8 | 12 | 28 | 0.027 | 0.42 | MIC50 (Staphylococcus aureus [23]): 2 µg/mL; MIC90 (Staphylococcus aureus [23]): 4 µg/mL; MIC50 (Staphylococcus sp. [24]): 4 µg/mL; MIC90 (Staphylococcus sp. [24]): 4 µg/mL
5 | CN[C@H](CC(C)C)C(=O)N[C@H]1C(=O)N[C@@H](CC(N)=O)C(=O)N[C@H]2C(=O)N[C@H]3C(=O)N[C@H](C(=O)N[C@H](C(=O)O)c4cc(O)cc(O)c4-c4cc3ccc4O)[C@H](O)c3ccc(c(Cl)c3)Oc3cc2cc(c3O[C@@H]2O[C@H](CO)[C@@H](O)[C@H](O)[C@H]2O[C@H]2C[C@](C)(N)[C@H](O)[C@H](C)O2)Oc2ccc(cc2Cl)[C@H]1O [VANCOMYCIN] |  |  |  |  |  |  |  |  |  |  |  | MIC90 (Staphylococcus aureus [25]): 2 µg/mL (≈ 1.38 µM); MIC90 (Staphylococcus sp. [26]): 4 µg/mL (≈ 2.76 µM)
6 | CC[n+]1cccc2c3cc(C4=C(C(=O)[O-])N5C(=O)[C@H]([C@@H](C)[O-])[C@H]5C4)ccc3n(C)c21.[Na+] | 277 | 11 | 1.4 | 1.4 | 2.8 | 0.01 | 3.7 | 3.2 | 21 | 0.035 | 0.43 | 
7 | C[C@@H]([O-])[C@H]1C(=O)N2C(C(=O)[O-])=C(c3ccc4c(c3)c3cc[n+](C)cc3n4C)C[C@H]12.[Na+] | 287 | 21 | 2.5 | 2.5 | 3.8 | 0.01 | 3.8 | 3.6 | 23 | 0.035 | 0.38 | MIC50 (Staphylococcus sp. [24]): 4 µg/mL; MIC90 (Staphylococcus sp. [24]): 4 µg/mL; MIC50 (Staphylococcus aureus [27]): 2 µg/mL; MIC90 (Staphylococcus aureus [27]): 4 µg/mL
8 | C[C@@H](O)[C@H]1C(=O)N2C(C(=O)[O-])=C(c3ccc4c(c3)c3ncccc3n4C)C[C@H]12.[Na+] | 4.5 | 6.6 | 0.16 | 0.065 | 0.31 | 1.8 | 1.2 | 0.37 | 5.3 | 0.006 | 0.2 | 
9 | C[C@@H](O)[C@H]1C(=O)N2C(C(=O)O)=C(c3ccc4c(c3)c3ccncc3n4C)C[C@H]12 |  |  |  |  |  | 0.034 |  |  |  |  |  | 
10 | C[C@@H](O)[C@H]1C(=O)N2C(C(=O)[O-])=C(c3ccc4c(c3)c3c[n+](C)ccc3n4C)C[C@H]12 | 40 | 14 | 1.2 | 0.94 | 1.5 | 0.007 | 3.7 | 2.1 | 14 | 0.026 | 0.59 | MIC50 (Staphylococcus aureus [27]): 4 µg/mL (≈ 10.2 µM); MIC90 (Staphylococcus aureus [27]): 8 µg/mL (≈ 20.4 µM); MIC50 (Staphylococcus sp. [12]): 8 µg/mL (≈ 20.4 µM); MIC90 (Staphylococcus sp. [12]): 16 µg/mL (≈ 40.9 µM)
11 | C[C@@H]([O-])[C@H]1C(=O)N2C(C(=O)[O-])=C(c3ccc4c(c3)c3ccc[n+](C)c3n4C)C[C@H]12.[Na+] | 313 | 26 | 3 | 2.8 | 4.8 | 0.05 | 3.9 | 4.5 | 30 | 0.057 | 0.49 | MIC50 (Staphylococcus sp. [24]): 4 µg/mL; MIC90 (Staphylococcus sp. [24]): 4 µg/mL; MIC50 (Staphylococcus aureus [28]): 2 µg/mL; MIC90 (Staphylococcus aureus [28]): 4 µg/mL
12 | C[C@@H](O)[C@H]1C(=O)N2C(C(=O)[O-])=C(c3ccc4c(c3)c3cccnc3n4C)C[C@H]12.[Na+] | 8.6 | 1.4 | 0.059 | 0.034 | 0.12 | 0.06 | 2.1 | 0.1 | 8 | 0.007 | 0.17 | MIC50 (Staphylococcus aureus [11]): 4 µg/mL; MIC90 (Staphylococcus aureus [11]): 8 µg/mL; MIC50 (Staphylococcus sp. [29]): 8 µg/mL; MIC90 (Staphylococcus sp. [29]): 16 µg/mL
13 | C[C@@H](O)[C@H]1C(=O)N2C(C(=O)[O-])=C(c3ccc4c(c3)c3cnccc3n4C)C[C@H]12.[Na+] | 40 | 20 | 0.94 | 0.98 | 1.8 | 0 | 4 | 4.8 | 11 | 0.018 | 0.56 | MIC50 (Staphylococcus aureus [23]): 4 µg/mL; MIC90 (Staphylococcus aureus [23]): 8 µg/mL; MIC50 (Staphylococcus sp. [12]): 8 µg/mL; MIC90 (Staphylococcus sp. [12]): 16 µg/mL
14 | C[C@@H]([O-])[C@H]1C(=O)N2C(C(=O)[O-])=C(c3ccc4c(c3)c3c(ccc[n+]3C)n4C)C[C@H]12.[Na+] | 27 | 9.3 | 1.1 | 1.2 | 1.3 | 0 | 2.5 | 2.2 | 12 | 0.018 | 0.58 | MIC50 (Staphylococcus aureus [27]): 4 µg/mL; MIC90 (Staphylococcus aureus [27]): 8 µg/mL; MIC50 (Staphylococcus sp. [12]): 8 µg/mL; MIC90 (Staphylococcus sp. [12]): 16 µg/mL
